In US11254686B1 (Corvus Pharmaceuticals, Inc., priority 2017, dated 2022):

What was measured:
adenosine A2B receptor = adenosine A2B receptor (Homo sapiens (Human), UniProt P29275); test: Adenosine receptor activity assay (Table 1), A2B activity; type: biochemical; settings: for Ratio: A2A activity to A2B activity (A2A/A2B); for IC50: read-out: Ave A2B cAMP IC50
adenosine A2A receptor = adenosine A2A receptor (Homo sapiens (Human), UniProt P29274); test: Adenosine receptor activity assay (Table 1), A2A activity; type: biochemical; settings: read-out: Ave A2A cAMP IC50
Sequence of adenosine A2A receptor (P29274 whole entry): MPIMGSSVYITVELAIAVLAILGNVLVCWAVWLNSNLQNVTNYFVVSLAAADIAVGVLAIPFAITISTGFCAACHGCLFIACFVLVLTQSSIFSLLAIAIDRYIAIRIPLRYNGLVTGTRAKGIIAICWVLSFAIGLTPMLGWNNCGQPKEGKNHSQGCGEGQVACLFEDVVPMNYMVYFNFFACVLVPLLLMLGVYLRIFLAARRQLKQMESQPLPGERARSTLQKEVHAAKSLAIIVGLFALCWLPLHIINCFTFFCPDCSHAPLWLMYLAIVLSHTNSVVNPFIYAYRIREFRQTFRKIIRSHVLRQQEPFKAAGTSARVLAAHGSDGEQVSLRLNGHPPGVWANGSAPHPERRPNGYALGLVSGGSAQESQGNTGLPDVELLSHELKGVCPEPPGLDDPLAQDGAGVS

Sequence of adenosine A2B receptor (P29275 whole entry): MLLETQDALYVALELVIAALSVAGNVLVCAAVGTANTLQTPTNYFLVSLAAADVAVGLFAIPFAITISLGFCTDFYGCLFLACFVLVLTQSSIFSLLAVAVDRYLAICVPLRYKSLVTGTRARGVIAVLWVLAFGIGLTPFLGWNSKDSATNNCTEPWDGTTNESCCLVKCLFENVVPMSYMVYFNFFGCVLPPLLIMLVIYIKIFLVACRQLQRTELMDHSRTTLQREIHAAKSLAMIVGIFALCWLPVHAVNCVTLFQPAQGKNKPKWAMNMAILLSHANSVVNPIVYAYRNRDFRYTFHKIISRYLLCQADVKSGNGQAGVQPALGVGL

| Structure (SMILES) | Ratio (adenosine A2B receptor) | IC50 (adenosine A2B receptor) [nM] | IC50 (adenosine A2A receptor) [nM] |
| --- | --- | --- | --- |
| C[C@H](Nc1nc(C(=O)NCc2nccn2C)c2sccc2n1)c1ccccn1 [Example Z290, (S)—N-((1-Methyl-1H-imidazol-2-yl)methyl)-2-((1-(pyridin-2-yl)ethyl)amino)thieno[3,2-d]pyrimidine-4-carboxamide] | 1.63 | > 500 | > 500 |
| CO[C@H]1C[C@@H](NC(=O)c2nc(N[C@@H](C)c3cccnc3)nc3ccsc23)C1 [Example Z296, N-((1s,3R)-3-Methoxycyclobutyl)-2-(((S)-1-(pyridin-3-yl)ethyl)amino)thieno[3,2-d]pyrimidine-4-carboxamide] | 1.07 | 100 to 500 | 100 to 500 |
| C[C@H](Nc1nc(C(=O)Nc2ccccc2)c2sccc2n1)c1ccccn1 [Example Z303, (S)—N-Phenyl-2-((1-(pyridin-2-yl)ethyl)amino)thieno[3,2-d]pyrimidine-4-carboxamide] | 3.08 | 50 to 100 | 100 to 500 |
| C[C@H](Nc1nc(C(=O)NCc2ncc[nH]2)c2sccc2n1)c1ccccn1 [Example Z304, (S)—N-((1H-Imidazol-2-yl)methyl)-2-((1-(pyridin-2-yl)ethyl)amino)thieno[3,2-d]pyrimidine-4-carboxamide] | 2.03 | 100 to 500 | 100 to 500 |
| C[C@H](Nc1nc(C(=O)N[C@H]2C[C@H](O)C2)c2sccc2n1)c1cncc(Cl)c1 [Example Z306, 2-(((S)-1-(5-Chloropyridin-3-yl)ethyl)amino)-N-((1r,3S)-3-hydroxycyclobutyl)thieno[3,2-d]pyrimidine-4-carboxamide] | 40.62 | 10 to 50 | > 500 |
| COc1cncc(NC(=O)c2nc(N[C@@H](C)c3ccccn3)nc3ccsc23)c1 [Example Z307, (S)—N-(5-Methoxypyridin-3-yl)-2-((1-(pyridin-2-yl)ethyl)amino)thieno[3,2-d]pyrimidine-4-carboxamide] | 5.89 | 10 to 50 | 100 to 500 |
| C[C@H](Nc1nc(C(=O)N2CC[C@@H](NC(=O)OC(C)(C)C)C2)c2sccc2n1)c1cccnc1 [Example Z313, tert-Butyl ((R)-1-(2-(((S)-1-(pyridin-3-yl)ethyl)amino)thieno[3,2-d]pyrimidine-4-carbonyl)pyrrolidin-3-yl)carbamate] | 0.29 | > 500 | 100 to 500 |
| C[C@H](Nc1nc(C(=O)N2CC[C@H](NC(=O)OC(C)(C)C)C2)c2sccc2n1)c1cccnc1 [Example Z314, tert-Butyl ((S)-1-(2-(((S)-1-(pyridin-3-yl)ethyl)amino)thieno[3,2-d]pyrimidine-4-carbonyl)pyrrolidin-3-yl)carbamate] | 0.46 | 100 to 500 | 50 to 100 |
| C[C@H](Nc1nc(C(=O)N2CC[C@H](NC(=O)OC(C)(C)C)C2)c2sccc2n1)c1ccccn1 [Example Z315, tert-Butyl ((S)-1-(2-(((S)-1-(pyridin-2-yl)ethyl)amino)thieno[3,2-d]pyrimidine-4-carbonyl)pyrrolidin-3-yl)carbamate] | 0.67 | 50 to 100 | 50 to 100 |
| CC(=O)N[C@@H]1CCN(C(=O)c2nc(N[C@@H](C)c3cccnc3)nc3ccsc23)C1 [Example Z316, N—((R)-1-(2-(((S)-1-(Pyridin-3-yl)ethyl)amino)thieno[3,2-d]pyrimidine-4-carbonyl)pyrrolidin-3-yl)acetamide] | 2.06 | > 500 | > 500 |
| CC(=O)N[C@@H]1CCN(C(=O)c2nc(N[C@@H](C)c3ccccn3)nc3ccsc23)C1 [Example Z317, N—((R)-1-(2-(((S)-1-(Pyridin-2-yl)ethyl)amino)thieno[3,2-d]pyrimidine-4-carbonyl)pyrrolidin-3-yl)acetamide] | 6.69 | > 500 | > 500 |
| CC(=O)N[C@@H]1CCN(C(=O)c2nc(NCc3cncc(F)c3)nc3ccsc23)C1 [Example Z318, (R)—N-(1-(2-(((5-Fluoropyridin-3-yl)methyl)amino)thieno[3,2-d]pyrimidine-4-carbonyl)pyrrolidin-3-yl)acetamide] | 17.41 | > 500 | > 500 |
| CC(=O)N[C@@H]1CCN(C(=O)c2nc(N[C@@H](C)c3cncc(F)c3)nc3ccsc23)C1 [Example Z319, N—((R)-1-(2-(((S)-1-(5-Fluoropyridin-3-yl)ethyl)amino)thieno[3,2-d]pyrimidine-4-carbonyl)pyrrolidin-3-yl)acetamide] | 22.72 | 50 to 100 | > 500 |
| COC[C@@H](Nc1nc(C(=O)NC[C@H](C)O)c2sccc2n1)c1cccnc1 [Example Z320, N—((S)-2-Hydroxypropyl)-2-(((S)-2-methoxy-1-(pyridin-3-yl)ethyl)amino)thieno[3,2-d]pyrimidine-4-carboxamide] | 3.92 | 50 to 100 | 100 to 500 |
| COC[C@@H](Nc1nc(C(=O)NC[C@@H](C)O)c2sccc2n1)c1cccnc1 [Example Z321, N—((R)-2-Hydroxypropyl)-2-(((S)-2-methoxy-1-(pyridin-3-yl)ethyl)amino)thieno[3,2-d]pyrimidine-4-carboxamide] | 3.66 | 50 to 100 | 100 to 500 |
| CC(=O)N[C@H]1CCN(C(=O)c2nc(N[C@@H](C)c3cccnc3)nc3ccsc23)C1 [Example Z322, N—((S)-1-(2-(((S)-1-(Pyridin-3-yl)ethyl)amino)thieno[3,2-d]pyrimidine-4-carbonyl)pyrrolidin-3-yl)acetamide] | 6.33 | 100 to 500 | > 500 |
| COC[C@H](Nc1nc(C(=O)NC[C@H](C)O)c2sccc2n1)c1cccnc1 [Example Z323, N—((S)-2-Hydroxypropyl)-2-(((R)-2-methoxy-1-(pyridin-3-yl)ethyl)amino)thieno[3,2-d]pyrimidine-4-carboxamide] | 3.30 | > 500 | > 500 |
| CC(=O)N[C@H]1CCN(C(=O)c2nc(N[C@@H](C)c3ccccn3)nc3ccsc23)C1 [Example Z324, N—((S)-1-(2-(((S)-1-(Pyridin-2-yl)ethyl)amino)thieno[3,2-d]pyrimidine-4-carbonyl)pyrrolidin-3-yl)acetamide] | 28.39 | 10 to 50 | > 500 |
| COC[C@H](Nc1nc(C(=O)NC[C@@H](C)O)c2sccc2n1)c1cccnc1 [Example Z325, N—((R)-2-Hydroxypropyl)-2-(((R)-2-methoxy-1-(pyridin-3-yl)ethyl)amino)thieno[3,2-d]pyrimidine-4-carboxamide] | 1.87 | > 500 | > 500 |
| CC(=O)N[C@H]1CCN(C(=O)c2nc(NCc3cncc(F)c3)nc3ccsc23)C1 [Example Z330, (S)—N-(1-(2-(((5-Fluoropyridin-3-yl)methyl)amino)thieno[3,2-d]pyrimidine-4-carbonyl)pyrrolidin-3-yl)acetamide] | 196.86 | < 10 | > 500 |
| C[C@H](NC(=O)c1nc(N[C@@H](C)c2ccncc2)nc2ccsc12)c1ccncc1 [Example Z338, N—((S)-1-(Pyridin-4-yl)ethyl)-2-(((S)-1-(pyridin-4-yl)ethyl)amino)thieno[3,2-d]pyrimidine-4-carboxamide] | 1.50 | 100 to 500 | > 500 |
| C[C@H](Nc1nc(C(=O)NCCC2CCN(C(=O)OC(C)(C)C)CC2)c2sccc2n1)c1ccccn1 [Example Z342, tert-Butyl (S)-4-(2-(2-((1-(Pyridin-2-yl)ethyl)amino)thieno[3,2-d]pyrimidine-4-carboxamido)ethyl)piperidine-1-carboxylate] | 2.11 | 100 to 500 | 100 to 500 |
| C[C@H](Nc1nc(C(=O)NCCC2CCN(C(=O)OC(C)(C)C)CC2)c2sccc2n1)c1cncc(F)c1 [Example Z343, tert-Butyl (S)-4-(2-(2-((1-(5-Fluoropyridin-3-yl)ethyl)amino)thieno[3,2-d]pyrimidine-4-carboxamido)ethyl)piperidine-1-carboxylate] |  | 50 to 100 | 100 to 500 |
| C[C@H](Nc1nc(C(=O)N2CCCC2)c2sccc2n1)c1ccncc1 [Example Z344, (S)-(2-((1-(Pyridin-4-yl)ethyl)amino)thieno[3,2-d]pyrimidin-4-yl)(pyrrolidin-1-yl)methanone] | 8.03 | 10 to 50 | 100 to 500 |
| COc1ccc(CNC(=O)c2nc(N[C@@H](C)c3ccncc3)nc3ccsc23)cn1 [Example Z345, (S)—N-((6-Methoxypyridin-3-yl)methyl)-2-((1-(pyridin-4-yl)ethyl)amino)thieno[3,2-d]pyrimidine-4-carboxamide] | 1.41 | 50 to 100 | 100 to 500 |
| C[C@H](Nc1nc(C(=O)N2CC[C@@H](O)C2)c2sc(C(F)(F)F)cc2n1)c1ccccn1 [Example Z349, ((R)-3-Hydroxypyrrolidin-1-yl)(2-(((S)-1-(pyridin-2-yl)ethyl)amino)-6-(trifluoromethyl)thieno[3,2-d]pyrimidin-4-yl)methanone] | 46.63 | 10 to 50 | > 500 |
| CO[C@H]1CCN(C(=O)c2nc(N[C@@H](C)c3cccnc3)nc3cc(C)sc23)C1 [Example Z350, ((S)-3-Methoxypyrrolidin-1-yl)(6-methyl-2-(((S)-1-(pyridin-3-yl)ethyl)amino)thieno[3,2-d]pyrimidin-4-yl)methanone] | 4.80 | 10 to 50 | 100 to 500 |
| CO[C@@H]1CCN(C(=O)c2nc(N[C@@H](C)c3cccnc3)nc3cc(C)sc23)C1 [Example Z351, ((R)-3-Methoxypyrrolidin-1-yl)(6-methyl-2-(((S)-1-(pyridin-3-yl)ethyl)amino)thieno[3,2-d]pyrimidin-4-yl)methanone] | 10.17 | < 10 | 50 to 100 |
